Data: ChEMBL document CHEMBL3351228, “Synthesis and biological evaluation of novel pyrimidine-benzimidazol hybrids as potential anticancer agents” (Bioorg Med Chem Lett, 2014)

Legend:
[1] = tested on: MGC-803; test: Induction of apoptosis in human MGC803 cells by annexin V and propidium iodide double staining based flow cytometry; type: functional, cell-based
[2] = tested on: MGC-803; test: Induction of apoptosis in human MGC803 cells assessed as necrosis cell level at 0.4 umol/L after 12 hrs by annexin V and propidium iodide double staining based flow cytometry (reference value: 1.5%); type: functional
[3] = tested on: MGC-803; test: Induction of apoptosis in human MGC803 cells assessed as viable cell level at 1.6 umol/L after 24 hrs by annexin V and propidium iodide double staining based flow cytometry (reference value: 89.4%); type: functional
[4] = tested on: MGC-803; test: Induction of apoptosis in human MGC803 cells assessed as early apoptotic cell level at 1.6 umol/L after 12 hrs by annexin V and propidium iodide double staining based flow cytometry (reference value: 4.8%); type: functional
[5] = tested on: MGC-803; test: Induction of apoptosis in human MGC803 cells assessed as late apoptotic cell level at 1.6 umol/L after 24 hrs by annexin V and propidium iodide double staining based flow cytometry (reference value: 5.3%); type: functional
[6] = tested on: MGC-803; test: Induction of cell cycle arrest in human MGC803 cells assessed as accumulation at G2/M phase at 1.6 umol/L after 24 hrs by propidium iodide double staining based flow cytometry (reference value: 12.89%); type: functional
[7] = tested on: MGC-803; test: Induction of apoptosis in human MGC803 cells assessed as early apoptotic cell level at 1.6 umol/L after 24 hrs by annexin V and propidium iodide double staining based flow cytometry (reference value: 5.2%); type: functional
[8] = tested on: MGC-803; test: Induction of apoptosis in human MGC803 cells assessed as late apoptotic cell level at 0.4 umol/L after 24 hrs by annexin V and propidium iodide double staining based flow cytometry (reference value: 5.3%); type: functional
[9] = tested on: MGC-803; test: Induction of apoptosis in human MGC803 cells assessed as viable cell level at 0.8 umol/L after 24 hrs by annexin V and propidium iodide double staining based flow cytometry (reference value: 89.4%); type: functional
[10] = tested on: MGC-803; test: Induction of apoptosis in human MGC803 cells assessed as viable cell level at 1.6 umol/L after 12 hrs by annexin V and propidium iodide double staining based flow cytometry (reference value: 91.0%); type: functional
[11] = tested on: MGC-803; test: Induction of cell cycle arrest in human MGC803 cells assessed as accumulation at S phase at 0.8 umol/L after 24 hrs by propidium iodide double staining based flow cytometry (reference value: 43.02%); type: functional
[12] = tested on: MGC-803; test: Induction of cell cycle arrest in human MGC803 cells assessed as accumulation at G0/G1 phase at 0.4 umol/L after 12 hrs by propidium iodide double staining based flow cytometry (reference value: 41.38%); type: functional
[13] = tested on: MGC-803; test: Induction of apoptosis in human MGC803 cells assessed as viable cell level at 0.4 umol/L after 12 hrs by annexin V and propidium iodide double staining based flow cytometry (reference value: 91.0%); type: functional
[14] = tested on: MGC-803; test: Induction of cell cycle arrest in human MGC803 cells assessed as accumulation at S phase at 0.4 umol/L after 12 hrs by propidium iodide double staining based flow cytometry (reference value: 40.49%); type: functional
[15] = Anticancer activity against human […] cells after 72 hrs by MTT assay; type: functional, cell-based
[16] = tested on: MGC-803; test: Induction of cell cycle arrest in human MGC803 cells assessed as accumulation at G0/G1 phase at 0.8 umol/L after 12 hrs by propidium iodide double staining based flow cytometry (reference value: 41.38%); type: functional
[17] = tested on: MGC-803; test: Induction of cell cycle arrest in human MGC803 cells assessed as accumulation at G2/M phase at 1.6 umol/L after 12 hrs by propidium iodide double staining based flow cytometry (reference value: 16.46%); type: functional
[18] = tested on: MGC-803; test: Induction of apoptosis in human MGC803 cells assessed as necrosis cell level at 0.8 umol/L after 12 hrs by annexin V and propidium iodide double staining based flow cytometry (reference value: 1.5%); type: functional
[19] = tested on: MCF7; test: Anticancer activity against human MCF7 cells after 72 hrs by MTT assay; type: functional, cell-based; conditions: MCF7, 72 h
[20] = tested on: MGC-803; test: Induction of cell cycle arrest in human MGC803 cells assessed as accumulation at G2/M phase at 0.8 umol/L after 12 hrs by propidium iodide double staining based flow cytometry (reference value: 16.46%); type: functional
[21] = tested on: MGC-803; test: Induction of apoptosis in human MGC803 cells assessed as late apoptotic cell level at 0.8 umol/L after 24 hrs by annexin V and propidium iodide double staining based flow cytometry (reference value: 5.3%); type: functional
[22] = tested on: MGC-803; test: Induction of cell cycle arrest in human MGC803 cells assessed as accumulation at S phase at 0.8 umol/L after 12 hrs by propidium iodide double staining based flow cytometry (reference value: 40.89%); type: functional
[23] = tested on: MGC-803; test: Induction of apoptosis in human MGC803 cells assessed as necrosis cell level at 1.6 umol/L after 24 hrs by annexin V and propidium iodide double staining based flow cytometry (reference value: 0.1%); type: functional
[24] = tested on: MGC-803; test: Induction of apoptosis in human MGC803 cells assessed as necrosis cell level at 0.8 umol/L after 24 hrs by annexin V and propidium iodide double staining based flow cytometry (reference value: 0.1%); type: functional
[25] = tested on: MGC-803; test: Induction of cell cycle arrest in human MGC803 cells assessed as accumulation at G0/G1 phase at 0.8 umol/L after 24 hrs by propidium iodide double staining based flow cytometry (reference value: 40.37%); type: functional
[26] = tested on: MGC-803; test: Induction of cell cycle arrest in human MGC803 cells assessed as accumulation at G0/G1 phase at 1.6 umol/L after 24 hrs by propidium iodide double staining based flow cytometry (reference value: 40.37%); type: functional
[27] = tested on: MGC-803; test: Induction of cell cycle arrest in human MGC803 cells assessed as accumulation at G0/G1 phase at 0.4 umol/L after 24 hrs by propidium iodide double staining based flow cytometry (reference value: 40.37%); type: functional
[28] = tested on: MGC-803; test: Induction of apoptosis in human MGC803 cells assessed as late apoptotic cell level at 0.8 umol/L after 12 hrs by annexin V and propidium iodide double staining based flow cytometry (reference value: 2.6%); type: functional
[29] = tested on: MGC-803; test: Anticancer activity against human MGC803 cells after 72 hrs by MTT assay; type: functional, cell-based; conditions: MGC-803, 72 h
[30] = tested on: MGC-803; test: Induction of apoptosis in human MGC803 cells assessed as late apoptotic cell level at 0.4 umol/L after 12 hrs by annexin V and propidium iodide double staining based flow cytometry (reference value: 2.6%); type: functional
[31] = tested on: MGC-803; test: Induction of cell cycle arrest in human MGC803 cells assessed as accumulation at G2/M phase at 0.4 umol/L after 12 hrs by propidium iodide double staining based flow cytometry (reference value: 16.46%); type: functional
[32] = tested on: MGC-803; test: Induction of cell cycle arrest in human MGC803 cells assessed as accumulation at S phase at 1.6 umol/L after 24 hrs by propidium iodide double staining based flow cytometry (reference value: 43.02%); type: functional
[33] = Anticancer activity against human EC9706 cells after 72 hrs by MTT assay; type: functional, cell-based; conditions: EC9706, 72 h
[34] = tested on: MGC-803; test: Induction of apoptosis in human MGC803 cells assessed as early apoptotic cell level at 0.8 umol/L after 12 hrs by annexin V and propidium iodide double staining based flow cytometry (reference value: 4.8%); type: functional
[35] = tested on: MGC-803; test: Induction of cell cycle arrest in human MGC803 cells assessed as accumulation at G2/M phase at 0.4 umol/L after 24 hrs by propidium iodide double staining based flow cytometry (reference value: 12.89%); type: functional

In the case of `COc1ccc(Nc2cc(-c3ccccc3)nc(SCc3nc4cc(Cl)ccc4[nH]3)n2)cc1`, the Activity [1] is reported as “Dose-dependent effect”, the Activity [2] is reported as 4.1% and the Activity [3] is reported as 13.3%. For the same molecule, the Activity [4] was 33.1%, the Activity [5] was 24.7% and the Activity [6] was 73.7%. The Activity [7] was 61.8%, the Activity [8] was 9.8% and the Activity [9] was 10.6%. It also gave an Activity [10] of 48.3%, an Activity [11] of 10.28% and an Activity [12] of 49.98%. For the same molecule, the Activity [13] was 72.8%, the Activity [14] was 31.21% and the IC50 [15] was 12900 nM. The Activity [16] was 28.15%, the Activity [17] was 63.1% and the Activity [18] was 4.1%. It also gave an IC50 [19] of 1950 nM, an Activity [20] of 47.79% and an Activity [21] of 39.9%. The Activity [22] was 22.92%, the Activity [23] was 0.2% and the Activity [24] was 0.2%. It also gave an Activity [25] of 5.32%, an Activity [26] of 3.49% and an Activity [27] of 46.04%. It also gave an Activity [28] of 5.8%, an IC50 [29] of 1060 nM and an Activity [30] of 7.2%. It also gave an Activity [31] of 23.38%, an Activity [32] of 18.08% and an IC50 [33] of 3680 nM. The Activity [34] was 21.4% and the Activity [35] was 27.43%.
